What all share (design): scale not given: the % may be the effect or the level left
The test system of test [1] is Platelet. Briefly: Inhibition of adenosine diphosphate-induced platelet aggregation in rabbit platelet-rich plasma at 100 ug/ml by turbidimetric method. It counts as functional, Oryctolagus cuniculus.
The test system of test [2] is Platelet. The test can be described thus: Inhibition of arachidonic acid-induced platelet aggregation in rabbit platelet-rich plasma at 100 ug/ml by turbidimetric method. It counts as functional, Oryctolagus cuniculus.
The test system of test [3] is Platelet. The test can be described thus: Inhibition of collagen-induced platelet aggregation in rabbit platelet-rich plasma at 100 ug/ml by turbidimetric method. It counts as functional, Oryctolagus cuniculus.
For test [4], the system named is Platelet. Briefly: Inhibition of platelet-activity factor-induced platelet aggregation in rabbit platelet-rich plasma at 100 ug/ml by turbidimetric method. It counts as functional, Oryctolagus cuniculus.
Test [5] deals with Aorta. Briefly: Vasorelaxant activity against high potassium-induced contraction in Wistar rat thoracic aorta at 100 ug/ml. It counts as functional.
The subject of test [6] is Aorta. Briefly: Vasorelaxant activity against norepinephrine-induced phasic contraction in Wistar rat thoracic aorta at 100 ug/ml. It counts as functional.
The subject of test [7] is Aorta. Briefly: Vasorelaxant activity against norepinephrine-induced tonic contraction in Wistar rat thoracic aorta at 100 ug/ml. It counts as functional.
The test system of test [8] is Platelet. Briefly: Inhibition of adenosine diphosphate-induced platelet aggregation in rabbit platelet-rich plasma at 50 ug/ml by turbidimetric method. It counts as functional, Oryctolagus cuniculus.
The subject of test [9] is Platelet. The test can be described thus: Inhibition of arachidonic acid-induced platelet aggregation in rabbit platelet-rich plasma at 50 ug/ml by turbidimetric method. The test is classed as functional, Oryctolagus cuniculus.
The subject of test [10] is Platelet. Briefly: Inhibition of collagen-induced platelet aggregation in rabbit platelet-rich plasma at 50 ug/ml by turbidimetric method. It counts as functional, Oryctolagus cuniculus.
The subject of test [11] is Platelet. The test can be described thus: Inhibition of platelet-activity factor-induced platelet aggregation in rabbit platelet-rich plasma at 50 ug/ml by turbidimetric method. The test is classed as functional, Oryctolagus cuniculus.
Test [12] concerns Aorta. Briefly: Vasorelaxant activity against high potassium-induced contraction in Wistar rat thoracic aorta at 20 ug/ml. The test is classed as functional.
The test system of test [13] is Aorta. Briefly: Vasorelaxant activity against norepinephrine-induced phasic contraction in Wistar rat thoracic aorta at 20 ug/ml. The test is classed as functional.
Test [14] relates to Aorta. Briefly: Vasorelaxant activity against norepinephrine-induced tonic contraction in Wistar rat thoracic aorta at 20 ug/ml. The test is classed as functional.
Test [15] relates to Platelet. Briefly: Inhibition of adenosine diphosphate-induced platelet aggregation in rabbit platelet-rich plasma at 25 ug/ml by turbidimetric method. It counts as functional, Oryctolagus cuniculus.
In test [16] the test system is Platelet. Briefly: Inhibition of arachidonic acid-induced platelet aggregation in rabbit platelet-rich plasma at 25 ug/ml by turbidimetric method. The test is classed as functional, Oryctolagus cuniculus.
The test system of test [17] is Platelet. The test can be described thus: Inhibition of collagen-induced platelet aggregation in rabbit platelet-rich plasma at 25 ug/ml by turbidimetric method. It counts as functional, Oryctolagus cuniculus.
The subject of test [18] is Platelet. The test can be described thus: Inhibition of platelet-activity factor-induced platelet aggregation in rabbit platelet-rich plasma at 25 ug/ml by turbidimetric method. It counts as functional, Oryctolagus cuniculus.
The subject of test [19] is Aorta. Briefly: Vasorelaxant activity against high potassium-induced contraction in Wistar rat thoracic aorta at 50 ug/ml. The test is classed as functional.
In test [20] the test system is Aorta. The test can be described thus: Vasorelaxant activity against norepinephrine-induced phasic contraction in Wistar rat thoracic aorta at 50 ug/ml. The test is classed as functional.
The test system of test [21] is Aorta. The test can be described thus: Vasorelaxant activity against norepinephrine-induced tonic contraction in Wistar rat thoracic aorta at 50 ug/ml. It counts as functional.
The test system of test [22] is Aorta. The test can be described thus: Vasorelaxant activity against high potassium-induced contraction in Wistar rat thoracic aorta at 1 ug/ml. The test is classed as functional.
In test [23] the test system is Aorta. Briefly: Vasorelaxant activity against norepinephrine-induced phasic contraction in Wistar rat thoracic aorta at 1 ug/ml. It counts as functional.
Test [24] deals with Aorta. The test can be described thus: Vasorelaxant activity against norepinephrine-induced tonic contraction in Wistar rat thoracic aorta at 1 ug/ml. The test is classed as functional.

On to `COc1ccc(C[C@@H]2c3cc(OC)c(OC)cc3CCN2C)cc1OC`, for which the Activity with Platelet [1] came out at 92.2%; in the test on Platelet [2], 81.2%; in the test on Platelet [3] it was 81.4%; with Platelet [4], 92.5%.

As for `COc1cc2ccc3c(CCN(C)C)cc4c(c3c2cc1OC)OCO4`, the Activity came to 34.9% in the test with Platelet [1]; 46.9% in the test on Platelet [2]; 6.1% in the test with Platelet [3]; 80.5% with Platelet [4]; 44.6% in the test on Aorta [5]; 7.1% in the test on Aorta [6]. In the test with Aorta [7], this molecule showed an Activity of 0%.

`COc1ccc2c(ccc3c(CCN(C)O)cc4c(c32)OCO4)c1`: the Activity in the test on Platelet [8] worked out at 58.6%; in the test on Platelet [9], 0%; in the test with Platelet [10], 23.5%; in the test with Platelet [11], 74.8%; with Aorta [5], 55.8%; in the test with Aorta [6], 102%. The same molecule yielded an Activity in the test with Aorta [7] of 91.9%.

For `COc1cc(CC[N+](C)(C)[O-])c2ccc3ccccc3c2c1OC`, the Activity in the test on Platelet [1] was determined as 37.4%; with Platelet [2], 0%; with Platelet [3], 0%; in the test on Platelet [4], 61.1%; in the test on Aorta [5], 5.8%; with Aorta [6], 30%. The same molecule displayed an Activity with Aorta [7] of 27.5%.

In the case of `COc1cc2ccc3c(CC[N+](C)(C)[O-])cc(OC)c(OC)c3c2cc1OC`, the Activity with Platelet [1] was 74.6%; with Platelet [2], 83.5%; with Platelet [3] it was 52.1%; in the test on Platelet [4], 87.2%; with Aorta [12] it was 104.2%; with Aorta [13], 72.5%. Also, the Activity in the test with Aorta [14] was determined as 83.2%.

As for `COc1cc2c(cc1OC)[C@H](Cc1ccc(O)cc1)NCC2.[O-][Cl+3]([O-])([O-])O`, the Activity in the test on Platelet [1] was 63.1%; in the test with Platelet [2], 60.5%; in the test with Platelet [3], 83.6%; in the test with Platelet [4] it was 78.2%; with Aorta [5], 43%; in the test with Aorta [6], 100%. The same molecule displayed an Activity in the test on Aorta [7] of 90.5%.

Take `COc1ccc(C[C@@H]2NCCc3cc(OC)c(OC)cc32)cc1.O=C(O)C(=O)O`: the Activity is recorded as 93.4% in the test with Platelet [1], 87.3% in the test with Platelet [2], 86.6% with Platelet [3] and 91.4% in the test with Platelet [4].

On to `COc1ccc(C[C@H]2NCCc3cc(OC)c(OC)cc32)cc1`, for which the Activity in the test with Platelet [1] is listed as 93.1%; in the test on Platelet [2], 89.2%; in the test on Platelet [3], 79.2%; with Platelet [4], 90.7%.

For the molecule `COc1cc2c(cc1OC)[C@H](Cc1ccc(O)cc1)N(C)CC2.O=C(O)C(=O)O`, the Activity is 89.7% in the test on Platelet [1], 79.5% in the test on Platelet [2], 82.4% with Platelet [3] and 91.5% in the test with Platelet [4].

Turning to `COc1cc2c(cc1OC)[C@@H](Cc1ccc(O)cc1)N(C)CC2.O=C(O)C(=O)O`, the Activity was found to be 92.7% in the test on Platelet [1], 91.3% with Platelet [2], 88.4% in the test with Platelet [3] and 93.6% in the test on Platelet [4].

Consider `COc1cc2c(cc1OC)[C@H](Cc1ccc(O)cc1)[N+](C)(C)CC2.[I-]`, for which the Activity is given as 93.7% in the test on Platelet [1], 66.8% with Platelet [2], 39.6% with Platelet [3] and 88.4% with Platelet [4].

As for `COc1cc2c(cc1OC)C(Cc1ccc(O)cc1)NCC2` (racemic), the Activity came out at 30.4% in the test with Platelet [1]; 49.7% with Platelet [2]; 24.7% in the test with Platelet [3]; 86.4% in the test on Platelet [4]; 107.8% in the test on Aorta [5]; 103% in the test with Aorta [6]. The molecule further displayed an Activity in the test with Aorta [7] of 95.7%.

`COc1cc2c(cc1O)C(Cc1ccc(O)cc1)NCC2` (racemic) [COCLAURINE]: the Activity in the test with Platelet [1] was determined as 70.2%; in the test on Platelet [2], 0%; in the test on Platelet [3], 69.7%; in the test with Platelet [4], 72.7%; in the test with Aorta [5], 109.9%; in the test on Aorta [6], 100%. Further, the Activity with Aorta [7] stood at 93.7%.

Take `COc1cc2c(cc1O)C(Cc1ccc(O)cc1)N(C)CC2` (racemic) [METHYL COCLAURINE]: the Activity turned out to be 73.6% with Platelet [1]; 13.8% with Platelet [2]; 24.8% in the test on Platelet [3]; 75.7% in the test on Platelet [4]; 70.8% with Aorta [12]; 149.6% in the test on Aorta [13]. For the same molecule, the Activity in the test with Aorta [14] amounted to 106.6%.

With `COc1ccc(C[C@H]2c3cc(O)c(OC)cc3CCN2C)cc1O` [(S)-RETICULINE], the Activity in the test with Platelet [1] is 58.7%; in the test on Platelet [2], 39.2%; in the test with Platelet [3], 84.2%; in the test with Platelet [4], 85.9%; in the test with Aorta [5] it was 109.3%; in the test on Aorta [6] it was 100%. Also, in the test on Aorta [7], the Activity is reported as 110.5%.

For `CC(=O)Oc1ccccc1C(=O)O` [ASPIRIN], the Activity with Platelet [15] is recorded as 77.9%; in the test with Platelet [16], 0%; in the test with Platelet [17], 87.8%; with Platelet [18], 90.4%.

For the molecule `COc1cc(CCN(C)C)c2ccc3ccccc3c2c1OC.[O-][Cl+3]([O-])([O-])O` [ATHEROSPERMININE HCLO4], the Activity in the test with Platelet [1], in the test on Platelet [2], with Platelet [3], with Platelet [4], with Aorta [5] and in the test with Aorta [6] was 0% throughout. This molecule displayed an Activity with Aorta [7] of 0%.

For the molecule `COc1cc(CC[N+](C)(C)C)c2ccc3ccccc3c2c1OC.[I-]` [ATHEROSPERMINIUM I], the Activity with Platelet [1] stood at 0%; in the test with Platelet [2], 0%; in the test on Platelet [3] it was 0%; with Platelet [4], 0%; in the test with Aorta [12], 38.3%; with Aorta [13], 108.3%. In the test with Aorta [14], the Activity was 100.5%.

With `COc1ccc(C[C@H]2c3cc(OC)c(OC)cc3CCN2C)cc1O` [LAUDANIDINE], the Activity with Platelet [8] was 77.6%; in the test on Platelet [9] it was 89%; in the test with Platelet [10], 87.9%; in the test with Platelet [11] it was 90%; in the test with Aorta [19], 105%; in the test on Aorta [20] it was 58.5%. The molecule further had an Activity in the test on Aorta [21] of 80.9%.

Consider `COc1cc2c(cc1O)[C@@H](Cc1ccc(O)cc1)[N+](C)(C)CC2.[I-]` [MAGNOCURARINE IODIDE], for which the Activity was 69% with Platelet [1]; 87.4% with Platelet [2]; 87.7% with Platelet [3]; 23.2% in the test with Platelet [4]; 134.7% in the test on Aorta [5]; 122.5% with Aorta [6]. Further, the Activity in the test with Aorta [7] was 123.5%.

The molecule `COC(=O)C1=C(C)NC(C)=C(C(=O)OC)C1c1ccccc1[N+](=O)[O-]` [NIFEDIPINE] yielded an Activity in the test on Aorta [22] of 0%.

Consider `COc1cc2c(cc1OC)[C@H](Cc1ccc(O)cc1)NCC2` [NORARMEPAVINE], for which the Activity with Platelet [1] amounted to 69.7%; with Platelet [2], 75.5%; with Platelet [3] it was 83.4%; in the test on Platelet [4] it was 57.8%; in the test with Aorta [5] it was 71.2%; in the test on Aorta [6], 121.9%. The same molecule yielded an Activity in the test with Aorta [7] of 105.7%.

Take `COc1cc2nc(N3CCN(C(=O)c4ccco4)CC3)nc(N)c2cc1OC` [PRAZOSIN]: the Activity in the test on Aorta [23] was determined as 0%; with Aorta [24], 100%.
